# Test results published in US20210085743A1, “SARRACENIA-BASED TOPICAL COMPOSITIONS AND METHODS OF USE THEREOF” (Aubio Life Sciences, LLC, priority 2019, published 2021).
# Experiments:
# herpes = conditions: guinea pig, topical, as infrequently as once weekly; cited from earlier work
# [1] = system: Reconstructed human epithelium (RhE); test: Cytokine release (ELISA) in SDS-damaged reconstructed human epithelium; format: cell-based; conditions: SDS vs untreated control group
# Method: (§1) Reconstructed human epithelium (RhE) was damaged by exposure to SDS 0.15% for 1 h, then 25 μL of the final Sarracenia formulation (Gel B) was applied. Cell viability by the MTT assay (FIG. 1), and cytokine release, specifically, IL-1α, IL-6, IL-8 and G-CSF release measured using ELISA (FIG. 2), were evaluated 24 h later. Each treatment was run in triplicate. A statistically significant (Tukey's multiple comparison test) recovery in cell viability and cytokine release compared to SDS treated inserts was considered as indicator of repair capacity. FIG. 2 (legend): Evaluation of cytokine production. Each value represents the mean±SD, n=3. Statistical analysis was performed with Tukey's multiple comparison test with *p<0.05 vs Control and § vs SDS treated group.
# [2] = system: Reconstructed human epithelium (RhE); test: MTT cell viability in SDS-damaged reconstructed human epithelium; format: cell-based; conditions: SDS 0.15% for 1 h, MTT 24 h later
# Method: as §1, with “capacity.” for “capacity. FIG. 2 (legend): Evaluation of cytokine production. Each value represents the mean±SD, n=3. Statistical analysis was performed with Tukey's multiple comparison test with *p<0.05 vs Control and § vs SDS treated group.”
# Each value represents the mean±SD, n=3. **p<0.01 vs control. The dotted line is set at the level of cytotoxicity obtained following SDS damage.
# FIG. 1 (legend): Sarracenia extract formulation improve cellular viability in a skin irritant model. The results obtained on cell viability (MTT assay) are reported. Each value represents the mean±SD, n=3. Statistical analysis was performed with Tukey's multiple comparison test with **p<0.01 vs Control. The dotted line is set at the level of cytotoxicity obtained following SDS damage.
# [3] = system: cancer cells including melanoma; conditions: various types of cancer cells including melanoma; cited from earlier work
# mycobacteria = conditions: from methanolic extracts of Sarracenia purpurea; cited from earlier work
# THP-1 cells = test: TLR agonist-induced IL-8 and TNF-α release (ELISA) in THP-1 cells; format: cell-based, human; conditions: control wells, 24 h
# Method: Naïve THP-1 cells were exposed for 24 to the TLR3 agonist poly(I:C) (100 μg/ml), to the TLR7/8 agonist imidazoquinoline (1 μg/m1), to the TLR9 agonist Class A CpG oligonucleotide 5 μM, and to LPS from Escherichia coli serotype 0127:B8 10 ng/ml in the presence or absence of three not cytotoxic concentrations of the extract. IL-8 and TNF-α were measured by ELISA as reference cytokines. Three independent experiments will be conducted. A statistically significant difference versus control cells was considered relevant.
# Naïve THP-1 cells were exposed for 24 to poly(I:C) 100 μg/ml, imidazoquinoline (Imid) 1 μg/ml, or LPS 10 ng/ml in the presence or absence of three concentrations of the extract 0.1, 0.5 and 1.0 mg/ml). IL-8 release was measured by ELISA.
# Naïve THP-1 cells were exposed for 24 to poly(I:C) 100 μg/ml, imidazoquinoline (Imid) 1 μg/ml, or LPS 10 ng/ml in the presence or absence of three concentrations of the extract 0.1, 0.5 and 1.0 mg/ml). TNF-α release was measured by ELISA.
molecule,measurement,setting,value
"CCOCc1nc2c(N)nc3ccccc3c2n1CC(C)(C)O [Resiquimod, 4-amino-2-ethoxymethyl-α,α-dimethyl-1H-imidazo [4,5-c]quinoline-1-ethanol]",recurrences of herpes after therapy,herpes,reduces recurrences of herpes
CCCCCCCCCCCCOS(=O)(=O)[O-].[Na+] [SDS],IL-1α release,[1],increase
same,IL-8 release,[1],increase
same,cell viability after SDS damage,[2],below 50%
C=C(C)[C@@H]1CC[C@]2(CO)CC[C@]3(C)[C@H](CC[C@@H]4[C@@]5(C)CC[C@H](O)C(C)(C)[C@@H]5CC[C@]43C)[C@@H]12 [betulin],anti-tumor activity,[3],anti-tumor activity
C=C(C)[C@@H]1CC[C@]2(C=O)CC[C@]3(C)[C@H](CC[C@@H]4[C@@]5(C)CC[C@H](O)C(C)(C)[C@@H]5CC[C@]43C)[C@@H]12 [betulinaldehyde],antimycobacterial activity,mycobacteria,responsible for the antimycobacterial activity
c1cnc2c(c1)ccc1nc[nH]c12 [imidazoquinoline],IL-8 release by TLR agonist alone,THP-1 cells,induced
C=C(C)[C@@H]1CC[C@]2(C)CC[C@]3(C)[C@H](CC[C@@H]4[C@@]5(C)CC[C@H](O)C(C)(C)[C@@H]5CC[C@]43C)[C@@H]12 [lupeol],anti-tumor activity,[3],anti-tumor activity
C[C@H]1[C@H](C)CC[C@]2(C(=O)O)CC[C@]3(C)C(=CC[C@@H]4[C@@]5(C)CC[C@H](O)C(C)(C)[C@@H]5CC[C@]43C)[C@H]12 [ursolic acid],antimycobacterial activity,mycobacteria,responsible for the antimycobacterial activity
Poly(I:C),IL-8 release by TLR agonist alone,THP-1 cells,induced
